Measured values published in ChEMBL document CHEMBL3046781, “Resistance of Helicoverpa assulta (Guenée) (Lepidoptera: Noctuidae) to fenvalerate, phoxim and methomyl in China” (2009).

What was measured:
Assay type in all cases: functional
Helicoverpa assulta [1] = experiment: Insecticidal activity against sixth-instar larvae of Helicoverpa assulta YN7 at 1.8 to 183360 mg/l after 48 hr by chi-squared analysis
Helicoverpa assulta [2] = experiment: Resistance factor, ratio of LD50 for sixth-instar larvae of Helicoverpa assulta GZ4 to LD50 for sixth-instar larvae of Helicoverpa assulta at 1.8 to 183360 mg/l
Helicoverpa assulta [3] = experiment: Insecticidal activity against sixth-instar larvae of Helicoverpa assulta YN5 at 1.8 to 183360 mg/l after 48 hr by chi-squared analysis
Helicoverpa assulta [4] = experiment: Insecticidal activity against sixth-instar larvae of Helicoverpa assulta YN8 at 1.8 to 183360 mg/l after 48 hr by chi-squared analysis
Helicoverpa assulta [5] = experiment: Resistance factor, ratio of LD50 for sixth-instar larvae of Helicoverpa assulta YN1 to LD50 for sixth-instar larvae of Helicoverpa assulta at 1.8 to 183360 mg/l
Helicoverpa assulta [6] = experiment: Insecticidal activity against sixth-instar larvae of Helicoverpa assulta HN1 at 1.8 to 183360 mg/l after 48 hr by chi-squared analysis
Helicoverpa assulta [7] = experiment: Insecticidal activity against sixth-instar larvae of Helicoverpa assulta GZ2 at 1.8 to 183360 mg/l after 48 hr by chi-squared analysis
Helicoverpa assulta [8] = experiment: Resistance factor, ratio of LD50 for sixth-instar larvae of Helicoverpa assulta GZ5 to LD50 for sixth-instar larvae of Helicoverpa assulta at 1.8 to 183360 mg/l
Helicoverpa assulta [9] = experiment: Resistance factor, ratio of LD50 for sixth-instar larvae of Helicoverpa assulta HB2 to LD50 for sixth-instar larvae of Helicoverpa assulta at 1.8 to 183360 mg/l
Helicoverpa assulta [10] = experiment: Insecticidal activity against sixth-instar larvae of Helicoverpa assulta GZ1 at 1.8 to 183360 mg/l after 48 hr by chi-squared analysis
Helicoverpa assulta [11] = experiment: Resistance factor, ratio of LD50 for sixth-instar larvae of Helicoverpa assulta YN6 to LD50 for sixth-instar larvae of Helicoverpa assulta at 1.8 to 183360 mg/l
Helicoverpa assulta [12] = experiment: Insecticidal activity against sixth-instar larvae of Helicoverpa assulta YN3 at 1.8 to 183360 mg/l after 48 hr by chi-squared analysis
Helicoverpa assulta [13] = experiment: Resistance factor, ratio of LD50 for sixth-instar larvae of Helicoverpa assulta GZ1 to LD50 for sixth-instar larvae of Helicoverpa assulta at 1.8 to 183360 mg/l
Helicoverpa assulta [14] = experiment: Insecticidal activity against sixth-instar larvae of Helicoverpa assulta GZ5 at 1.8 to 183360 mg/l after 48 hr by chi-squared analysis
Helicoverpa assulta [15] = experiment: Insecticidal activity against sixth-instar larvae of Helicoverpa assulta AH3 at 21 to 3390 mg/l after 48 hr by chi-squared analysis
Helicoverpa assulta [16] = experiment: Insecticidal activity against sixth-instar larvae of Helicoverpa assulta GZ1 at 21 to 3390 mg/l after 48 hr by chi-squared analysis
Helicoverpa assulta [17] = experiment: Resistance factor, ratio of LD50 for sixth-instar larvae of Helicoverpa assulta YN8 to LD50 for sixth-instar larvae of Helicoverpa assulta at 21 to 3390 mg/l
Helicoverpa assulta [18] = experiment: Insecticidal activity against sixth-instar larvae of Helicoverpa assulta at 21 to 3390 mg/l after 48 hr by chi-squared analysis
Helicoverpa assulta [19] = experiment: Resistance factor, ratio of LD50 for sixth-instar larvae of Helicoverpa assulta GZ4 to LD50 for sixth-instar larvae of Helicoverpa assulta at 21 to 3390 mg/l
Helicoverpa assulta [20] = experiment: Resistance factor, ratio of LD50 for sixth-instar larvae of Helicoverpa assulta SD1 to LD50 for sixth-instar larvae of Helicoverpa assulta at 21 to 3390 mg/l
Helicoverpa assulta [21] = experiment: Insecticidal activity against sixth-instar larvae of Helicoverpa assulta FJ1 at 21 to 3390 mg/l after 48 hr by chi-squared analysis
Helicoverpa assulta [22] = experiment: Insecticidal activity against sixth-instar larvae of Helicoverpa assulta AH1 at 21 to 3390 mg/l after 48 hr by chi-squared analysis
Helicoverpa assulta [23] = experiment: Insecticidal activity against sixth-instar larvae of Helicoverpa assulta SD2 at 21 to 3390 mg/l after 48 hr by chi-squared analysis
Helicoverpa assulta [24] = experiment: Insecticidal activity against sixth-instar larvae of Helicoverpa assulta FJ2 at 21 to 3390 mg/l after 48 hr by chi-squared analysis
Helicoverpa assulta [25] = experiment: Resistance factor, ratio of LD50 for sixth-instar larvae of Helicoverpa assulta YN1 to LD50 for sixth-instar larvae of Helicoverpa assulta at 39 to 12630 mg/l
Helicoverpa assulta [26] = experiment: Resistance factor, ratio of LD50 for sixth-instar larvae of Helicoverpa assulta YN8 to LD50 for sixth-instar larvae of Helicoverpa assulta at 39 to 12630 mg/l
Helicoverpa assulta [27] = experiment: Resistance factor, ratio of LD50 for sixth-instar larvae of Helicoverpa assulta YN6 to LD50 for sixth-instar larvae of Helicoverpa assulta at 39 to 12630 mg/l
Helicoverpa assulta [28] = experiment: Insecticidal activity against sixth-instar larvae of Helicoverpa assulta GZ1 at 39 to 12630 mg/l after 48 hr by chi-squared analysis
Helicoverpa assulta [29] = experiment: Resistance factor, ratio of LD50 for sixth-instar larvae of Helicoverpa assulta YN3 to LD50 for sixth-instar larvae of Helicoverpa assulta at 39 to 12630 mg/l
Helicoverpa assulta [30] = experiment: Insecticidal activity against sixth-instar larvae of Helicoverpa assulta SD1 at 39 to 12630 mg/l after 48 hr by chi-squared analysis
Helicoverpa assulta [31] = experiment: Insecticidal activity against sixth-instar larvae of Helicoverpa assulta GZ2 at 39 to 12630 mg/l after 48 hr by chi-squared analysis
Helicoverpa assulta [32] = experiment: Insecticidal activity against sixth-instar larvae of Helicoverpa assulta YN1 at 39 to 12630 mg/l after 48 hr by chi-squared analysis
Helicoverpa assulta [33] = experiment: Resistance factor, ratio of LD50 for sixth-instar larvae of Helicoverpa assulta HB1 to LD50 for sixth-instar larvae of Helicoverpa assulta at 39 to 12630 mg/l
Helicoverpa assulta [34] = experiment: Insecticidal activity against sixth-instar larvae of Helicoverpa assulta FJ3 at 39 to 12630 mg/l after 48 hr by chi-squared analysis
Helicoverpa assulta [35] = experiment: Resistance factor, ratio of LD50 for sixth-instar larvae of Helicoverpa assulta SD1 to LD50 for sixth-instar larvae of Helicoverpa assulta at 39 to 12630 mg/l

CC(C)C(C(=O)OC(C#N)c1cccc(Oc2ccccc2)c1)c1ccc(Cl)cc1 (stereo not given) [FENVALERATE]
LD90 (Helicoverpa assulta [1]): 507 µg/g | LD50 (Helicoverpa assulta [1]; Helicoverpa assulta, YN7, 48 h): 249 mg/kg | Ratio (Helicoverpa assulta [2]): 347 | LD90 (Helicoverpa assulta [3]): 4567 µg/g | LD50 (Helicoverpa assulta [3]; Helicoverpa assulta, YN5, 48 h): 1430 mg/kg | LD90 (Helicoverpa assulta [4]): 9100 µg/g | LD50 (Helicoverpa assulta [4]; Helicoverpa assulta, YN8, 48 h): 2860 mg/kg | Ratio (Helicoverpa assulta [5]): 8412 | LD90 (Helicoverpa assulta [6]): 23.1 µg/g | LD50 (Helicoverpa assulta [6]; Helicoverpa assulta, HN1, 48 h): 10.5 mg/kg | LD90 (Helicoverpa assulta [7]): 558 µg/g | LD50 (Helicoverpa assulta [7]; Helicoverpa assulta, GZ2, 48 h): 169 mg/kg | Ratio (Helicoverpa assulta [8]): 189 | Ratio (Helicoverpa assulta [9]): 28.5 | LD90 (Helicoverpa assulta [10]): 1043 µg/g | LD50 (Helicoverpa assulta [10]; Helicoverpa assulta, GZ1, 48 h): 301 mg/kg | Ratio (Helicoverpa assulta [11]): 4115 | LD90 (Helicoverpa assulta [12]): 388 µg/g | LD50 (Helicoverpa assulta [12]; Helicoverpa assulta, YN3, 48 h): 227 mg/kg | Ratio (Helicoverpa assulta [13]): 1860 | LD90 (Helicoverpa assulta [14]): 74.2 µg/g | LD50 (Helicoverpa assulta [14]; Helicoverpa assulta, GZ5, 48 h): 30.6 mg/kg

CNC(=O)ON=C(C)SC [METHOMYL]
LD90 (Helicoverpa assulta [15]): 44.7 µg/g | LD50 (Helicoverpa assulta [15]; Helicoverpa assulta, AH3, 48 h): 18.4 mg/kg | LD90 (Helicoverpa assulta [16]): 131 µg/g | LD50 (Helicoverpa assulta [16]; Helicoverpa assulta, GZ1, 48 h): 41.8 mg/kg | Ratio (Helicoverpa assulta [17]): 23.1 | LD90 (Helicoverpa assulta [18]): 4.1 µg/g | LD50 (Helicoverpa assulta [18]; Helicoverpa assulta, 48 h): 1.45 mg/kg | Ratio (Helicoverpa assulta [19]): 11.5 | Ratio (Helicoverpa assulta [20]): 3.93 | LD90 (Helicoverpa assulta [21]): 67.8 µg/g | LD50 (Helicoverpa assulta [21]; Helicoverpa assulta, FJ1, 48 h): 21.1 mg/kg | LD90 (Helicoverpa assulta [22]): 168 µg/g | LD50 (Helicoverpa assulta [22]; Helicoverpa assulta, AH1, 48 h): 53.6 mg/kg | LD90 (Helicoverpa assulta [23]): 41.8 µg/g | LD50 (Helicoverpa assulta [23]; Helicoverpa assulta, SD2, 48 h): 8.92 mg/kg | LD90 (Helicoverpa assulta [24]): 108 µg/g | LD50 (Helicoverpa assulta [24]; Helicoverpa assulta, FJ2, 48 h): 28.7 mg/kg

CCOP(=S)(OCC)O/N=C(\C#N)c1ccccc1 [PHOXIM]
Ratio (Helicoverpa assulta [25]): 8.72 | Ratio (Helicoverpa assulta [26]): 17.2 | Ratio (Helicoverpa assulta [27]): 9.17 | LD90 (Helicoverpa assulta [28]): 124 µg/g | LD50 (Helicoverpa assulta [28]; Helicoverpa assulta, GZ1, 48 h): 33.3 mg/kg | Ratio (Helicoverpa assulta [29]): 12.5 | LD90 (Helicoverpa assulta [30]): 26.5 µg/g | LD50 (Helicoverpa assulta [30]; Helicoverpa assulta, SD1, 48 h): 11.9 mg/kg | LD90 (Helicoverpa assulta [31]): 101 µg/g | LD50 (Helicoverpa assulta [31]; Helicoverpa assulta, GZ2, 48 h): 25.3 mg/kg | LD90 (Helicoverpa assulta [32]): 57.3 µg/g | LD50 (Helicoverpa assulta [32]; Helicoverpa assulta, YN1, 48 h): 20.4 mg/kg | Ratio (Helicoverpa assulta [33]): 3.49 | LD90 (Helicoverpa assulta [34]): 36.9 µg/g | LD50 (Helicoverpa assulta [34]; Helicoverpa assulta, FJ3, 48 h): 19 mg/kg | Ratio (Helicoverpa assulta [35]): 5.09
